Assay results reported in paper PMC7377239, “Cardiovascular Effects of Polychlorinated Biphenyls and Their Major Metabolites” (Environmental Health Perspectives, 2020).
Read-outs that look alike come from different tables or passages of the source.

Tests used:
[1] = system: iCell cardiomyocytes (human iPSC-derived cardiomyocytes); test: High-content imaging of cytotoxicity and mitochondrial integrity in iPSC-CMs; assay type: cell-based; conditions: Homo sapiens, Cardiomyocyte; for viability at 0.01 µM / activity at 0.01 µM / viability at 0.1 µM / activity at 0.1 µM / viability at 1 µM / activity at 1 µM / viability at 10 µM / activity at 10 µM / viability at 100 µM / activity at 100 µM: 0.00 µM = 100.00; for viability at 0.1 µM / activity at 0.1 µM: 0.10 µM
Method in brief: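 This assay measured cytotoxicity and mitochondrial integrity in iPSC cardiomyocytes held in 40μL maintenance medium. After compound exposure, a 2× staining solution with Hoechst 33342 (4μg/mL) and MitoTracker™ Orange (0.4μM) was applied for 15 min at 37°C. Cells were washed, fixed with 3.7% formaldehyde, imaged on DAPI and Cy3 channels, and scored in MetaXpress®.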

HUVECs = test: High-content imaging cytotoxicity in HUVECs, 24 h; assay type: cell-based, human; conditions: Homo sapiens, HUVEC, 24 h, HUVECs; for viability at 0.01 µM / activity at 0.01 µM: concentration 0.01 µM; for viability at 0.01 µM / activity at 0.01 µM / viability at 0.1 µM / activity at 0.1 µM / viability at 1 µM / activity at 1 µM / viability at 10 µM / activity at 10 µM / viability at 100 µM / activity at 100 µM: 0.00 µM = 100.00; for viability at 0.1 µM / activity at 0.1 µM: concentration 0.10 µM; for viability at 1 µM / activity at 1 µM: concentration 1.00 µM; for viability at 10 µM / activity at 10 µM: concentration 10.00 µM; for viability at 100 µM / activity at 100 µM: concentration 100.00 µM; for minimal effective concentration: MAX 100.00
Method in brief: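 Confluent HUVEC monolayers, passages 1–5, received test chemicals for 24 h. Cytotoxicity was scored from triple-stain high-content images, with PODs defined by a one-SD deviation from 0.5% DMSO vehicle controls.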

[2] = 1.5 h, 90min, read-out: cm.cam.90min
[3] = 1.5 h, 90min, read-out: cm.mii.90min
[4] = 1.5 h, 90min, read-out: cm.mito.90min
[5] = 1.5 h, 90min, read-out: cm.tc.90min
[6] = 24 h, 24hrs, read-out: cm.cam.24hrs
[7] = 24 h, 24hrs, read-out: cm.mii.24hrs
[8] = 24 h, 24hrs, read-out: cm.mito.24hrs
[9] = 24 h, 24hrs, read-out: cm.tc.24hrs
[10] = 24 hr, read-out: huvec.cyto.24hr
[11] = 24 hr, read-out: huvec.mito.24hr
[12] = 24 hr, read-out: huvec.mitoint.24hr
[13] = 24 hr, read-out: huvec.nma.24hr
[14] = 24 hrs, read-out: huvec.tc.24hrs

`Clc1cc(Cl)c(-c2cc(Cl)c(Cl)cc2Cl)cc1Cl` [PCB153] gave a viability at 0.01 µM [1, 2] of 98.3%, an activity at 0.01 µM [1, 3] of 112% and an activity at 0.01 µM [1, 4] of 98.2%. The viability at 0.01 µM [1, 5] was 98.1%, the viability at 0.1 µM [1, 2] was 96.8% and the activity at 0.1 µM [1, 3] was 109%. For the same compound, the activity at 0.1 µM [1, 4] was 96.6%, the viability at 0.1 µM [1, 5] was 96.6% and the viability at 1 µM [1, 2] was 102%. It also gave an activity at 1 µM [1, 3] of 112%, an activity at 1 µM [1, 4] of 102% and a viability at 1 µM [1, 5] of 102%. It also gave a viability at 10 µM [1, 2] of 99.4%, an activity at 10 µM [1, 3] of 102% and an activity at 10 µM [1, 4] of 99.5%. It also gave a viability at 10 µM [1, 5] of 99.5%, a viability at 100 µM [1, 2] of 1.35% and an activity at 100 µM [1, 3] of 91%. For the same compound, the activity at 100 µM [1, 4] was 1.22%, the viability at 100 µM [1, 5] was 1.5% and the minimal effective concentration ([1]; 1.5 h, 90min, read-out: cm.cam.90min POD) was 20.6 µM. The minimal effective concentration ([1]; 1.5 h, 90min, read-out: cm.mii.90min POD) was 100 µM, the minimal effective concentration ([1]; 1.5 h, 90min, read-out: cm.mito.90min POD) was 19.8 µM and the minimal effective concentration ([1]; 1.5 h, 90min, read-out: cm.tc.90min POD) was 23.2 µM. For the same compound, the viability at 0.01 µM [1, 6] was 94.6%, the activity at 0.01 µM [1, 7] was 88.6% and the activity at 0.01 µM [1, 8] was 94.7%. For the same compound, the viability at 0.01 µM [1, 9] was 95.8%, the viability at 0.1 µM [1, 6] was 98.2% and the activity at 0.1 µM [1, 7] was 109%. For the same compound, the activity at 0.1 µM [1, 8] was 99.3%, the viability at 0.1 µM [1, 9] was 98.3% and the viability at 1 µM [1, 6] was 99.7%. For the same compound, the activity at 1 µM [1, 7] was 80.6%, the activity at 1 µM [1, 8] was 100% and the viability at 1 µM [1, 9] was 99.9%. For the same compound, the viability at 10 µM [1, 6] was 96.8%, the activity at 10 µM [1, 7] was 99.6% and the activity at 10 µM [1, 8] was 95.2%. The viability at 10 µM [1, 9] was 96.5%, the viability at 100 µM [1, 6] was 1.91% and the activity at 100 µM [1, 7] was 23.6%. The activity at 100 µM [1, 8] was 0.34%, the viability at 100 µM [1, 9] was 1.92% and the minimal effective concentration ([1]; 24 h, read-out: cm.cam.24hrs POD) was 11.6 µM. For the same compound, the minimal effective concentration ([1]; 24 h, read-out: cm.mii.24hrs POD) was 39.9 µM, the minimal effective concentration ([1]; 24 h, read-out: cm.mito.24hrs POD) was 10.5 µM and the minimal effective concentration ([1]; 24 h, read-out: cm.tc.24hrs POD) was 11.1 µM. For the same compound, the viability at 0.01 µM (HUVECs; [10]) was 89.7%, the activity at 0.01 µM (HUVECs; [11]) was 88.6% and the activity at 0.01 µM (HUVECs; [12]) was 89.5%. The activity at 0.01 µM (HUVECs; [13]) was 98.4%, the viability at 0.1 µM (HUVECs; [10]) was 85% and the activity at 0.1 µM (HUVECs; [11]) was 83.8%. For the same compound, the activity at 0.1 µM (HUVECs; [12]) was 93%, the activity at 0.1 µM (HUVECs; [13]) was 97% and the viability at 1 µM (HUVECs; [10]) was 94.2%. For the same compound, the activity at 1 µM (HUVECs; [11]) was 93.9%, the activity at 1 µM (HUVECs; [12]) was 92.2% and the activity at 1 µM (HUVECs; [13]) was 97.3%. The viability at 10 µM (HUVECs; [10]) was 66.9%, the activity at 10 µM (HUVECs; [11]) was 53.7% and the activity at 10 µM (HUVECs; [12]) was 45.8%. It also gave an activity at 10 µM (HUVECs; [13]) of 66.9%, a viability at 100 µM (HUVECs; [10]) of 66.2% and an activity at 100 µM (HUVECs; [11]) of 34.5%. The activity at 100 µM (HUVECs; [12]) was 13.2%, the activity at 100 µM (HUVECs; [13]) was 65.8% and the minimal effective concentration (HUVECs; 24 hr, read-out: huvec.cyto.24hr POD) was 0.0171 µM. For the same compound, the minimal effective concentration (HUVECs; 24 hr, read-out: huvec.mito.24hr POD) was 0.75 µM, the minimal effective concentration (HUVECs; 24 hr, read-out: huvec.mitoint.24hr POD) was 0.83 µM and the minimal effective concentration (HUVECs; 24 hr, read-out: huvec.nma.24hr POD) was 1.01 µM. It also gave a viability at 0.01 µM (HUVECs; [14]) of 89.7%, a viability at 0.1 µM (HUVECs; [14]) of 85% and a viability at 1 µM (HUVECs; [14]) of 94.2%. The viability at 10 µM (HUVECs; [14]) was 67%, the viability at 100 µM (HUVECs; [14]) was 66.2% and the minimal effective concentration (HUVECs; 24 hrs, read-out: huvec.tc.24hrs POD) was 0.0171 µM.
